Measured values as given in patent publication US20240025841A1, “METHOD FOR OBTAINING CRYSTALLINE DIETHYLAMINO HYDROXYBENZOYL HEXYL BENZOATE” (BASF SE, priority 2020, published 2024).

Assay: Equilibrium solubility of (I) in 1-hexanol at different temperatures
Type: physicochemical
Conditions: equilibrium solubility in 1-hexanol
Description: The equilibrium solubility of (I) in 1-hexanol at different temperatures was determined using a double jacketed 750 mL crystallizer. A mixture of (I) and 1-hexanol in the crystallizer was heated to a target temperature and the equilibrium condition was allowed to establish at that temperature. Samples from the solid free mother liquor were drawn using a filter frit. The samples were analysed for (I) content.
The results are shown in […].1 and are plotted in FIG. 1.

(I) concentration (0 °C): 3.8%
(I) concentration (4 °C): 4.3%
(I) concentration (7 °C): 5.4%
(I) concentration (8 °C): 5.3%
(I) concentration (12 °C): 6.2%
(I) concentration (13.7 °C): 8.6%
(I) concentration (16 °C): 7.6%
(I) concentration (20 °C): 8.8%
(I) concentration (25 °C): 12.3%
(I) concentration (28.3 °C): 17.6%
(I) concentration (30 °C): 19.0%
(I) concentration (35 °C): 40.0%
(I) concentration (−0.9 °C): 3.4%
SMILES: CCCCCCOC(=O)c1ccccc1C(=O)c1ccc(N(CC)CC)cc1O [(I), 2-(4′-Diethylamino-2′-hydroxybenzoyl)benzoic acid hexyl ester]
